PubChem BioAssay (NCI)
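Following 48 hours of exposure in 96-well plates, responses at five concentrations were used to interpolate endpoints linearly. TGI is the concentration that stops growth completely.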

Tests used:
Test in all cases: inhibition of tumour cell growth, NCI panel, 48 h
[1] = test system: RXF 393 renal
[2] = test system: HCC-2998 colon
[3] = test system: NCI-H226 lung
[4] = test system: MDA-MB-231 breast
[5] = test system: DU-145 prostate
[6] = test system: EKVX NSCLC
[7] = test system: NCI/ADR-RES ovarian
[8] = test system: NCI-H522 lung
[9] = test system: SF-539 CNS
[10] = test system: HOP-92 NSCLC
[11] = test system: HT29 colon
[12] = test system: K-562 leukemia
[13] = test system: OVCAR-3 ovarian
[14] = test system: SK-MEL-2 melanoma
[15] = test system: HCT-15 colon
[16] = test system: OVCAR-8 ovarian
[17] = test system: MALME-3M melanoma
[18] = test system: U251 CNS
[19] = test system: SF-295 CNS
[20] = test system: UO-31 renal
[21] = test system: A549 NSCLC
[22] = test system: SK-MEL-28 melanoma
[23] = test system: MDA-N
[24] = test system: CCRF-CEM leukemia
[25] = test system: 786-0 renal
[26] = test system: UACC-62 melanoma
[27] = test system: T-47D breast
[28] = test system: NCI-H460 lung
[29] = test system: HS 578T breast
[30] = test system: SF-268 CNS
[31] = test system: UACC-257 melanoma
[32] = test system: OVCAR-4 ovarian
[33] = test system: NCI-H23 lung
[34] = test system: ACHN renal
[35] = test system: TK-10 renal
[36] = test system: SK-MEL-5 melanoma
[37] = test system: HCT-116 colon
[38] = test system: CAKI-1 renal
[39] = test system: HOP-62 NSCLC
[40] = test system: SNB-75 CNS
[41] = test system: MCF7 breast
[42] = test system: SW-620 colon
[43] = test system: M14 melanoma
[44] = test system: RPMI-8226 leukemia
[45] = test system: MOLT-4 leukemia
[46] = test system: PC-3 prostate
[47] = test system: KM12 colon
[48] = test system: HL-60(TB) leukemia
[49] = test system: BT-549 breast
[50] = test system: OVCAR-5 ovarian
[51] = test system: SK-OV-3 ovarian
[52] = test system: SNB-19 CNS
[53] = test system: MDA-MB-435
[54] = test system: LOX IMVI melanoma
[55] = test system: A498 renal
[56] = test system: SN12C renal
[57] = test system: COLO 205 colon
[58] = test system: IGROV1 ovarian

SMILES: N#CCCN(CCCN(C(=O)N(c1ccccc1)c1ccccc1)c1ccccc1)C(=O)Nc1ccccc1
- TGI [1]: > 100 µM
- TGI [2]: > 100 µM
- TGI [3]: > 100 µM
- TGI [4]: > 100 µM
- TGI [5]: > 100 µM
- TGI [6]: > 100 µM
- TGI [7]: > 100 µM
- TGI [8]: > 100 µM
- TGI [9]: > 100 µM
- TGI [10]: > 100 µM
- TGI [11]: > 100 µM
- TGI [12]: > 100 µM
- TGI [13]: > 100 µM
- TGI [14]: > 100 µM
- TGI [15]: > 100 µM
- TGI [16]: > 100 µM
- TGI [17]: > 100 µM
- TGI [18]: > 100 µM
- TGI [19]: > 100 µM
- TGI [20]: > 100 µM
- TGI [21]: > 100 µM
- TGI [22]: > 100 µM
- TGI [23]: > 100 µM
- TGI [24]: 83.6 µM
- TGI [25]: > 100 µM
- TGI [26]: > 100 µM
- TGI [27]: > 100 µM
- TGI [28]: > 100 µM
- TGI [29]: > 100 µM
- TGI [30]: > 100 µM
- TGI [31]: > 100 µM
- TGI [32]: > 100 µM
- TGI [33]: > 100 µM
- TGI [34]: > 100 µM
- TGI [35]: > 100 µM
- TGI [36]: > 100 µM
- TGI [37]: > 100 µM
- TGI [38]: > 100 µM
- TGI [39]: > 100 µM
- TGI [40]: > 100 µM
- TGI [41]: > 100 µM
- TGI [42]: > 100 µM
- TGI [43]: > 100 µM
- TGI [44]: > 100 µM
- TGI [45]: > 100 µM
- TGI [46]: > 100 µM
- TGI [47]: > 100 µM
- TGI [48]: 45.1 µM
- TGI [49]: > 100 µM
- TGI [50]: > 100 µM
- TGI [51]: > 100 µM
- TGI [52]: > 100 µM
- TGI [53]: > 100 µM
- TGI [54]: > 100 µM
- TGI [55]: > 100 µM

SMILES: CCCCNc1nc2nc[nH]c2c(=O)[nH]1
- TGI [1]: > 100 µM
- TGI [2]: > 100 µM
- TGI [3]: > 100 µM
- TGI [4]: > 100 µM
- TGI [5]: > 100 µM
- TGI [6]: > 100 µM
- TGI [7]: > 100 µM
- TGI [8]: > 100 µM
- TGI [9]: > 100 µM
- TGI [10]: > 100 µM
- TGI [11]: > 100 µM
- TGI [12]: > 100 µM
- TGI [13]: > 100 µM
- TGI [14]: > 100 µM
- TGI [15]: > 100 µM
- TGI [16]: > 100 µM
- TGI [17]: > 100 µM
- TGI [56]: > 100 µM
- TGI [18]: > 100 µM
- TGI [19]: > 100 µM
- TGI [20]: > 100 µM
- TGI [21]: > 100 µM
- TGI [23]: > 100 µM
- TGI [24]: > 100 µM
- TGI [25]: > 100 µM
- TGI [26]: > 100 µM
- TGI [27]: > 100 µM
- TGI [28]: > 100 µM
- TGI [29]: > 100 µM
- TGI [30]: > 100 µM
- TGI [31]: > 100 µM
- TGI [32]: > 100 µM
- TGI [57]: > 100 µM
- TGI [33]: > 100 µM
- TGI [34]: > 100 µM
- TGI [35]: > 100 µM
- TGI [36]: > 100 µM
- TGI [37]: > 100 µM
- TGI [38]: > 100 µM
- TGI [39]: > 100 µM
- TGI [40]: > 100 µM
- TGI [41]: > 100 µM
- TGI [42]: > 100 µM
- TGI [43]: > 100 µM
- TGI [44]: > 100 µM
- TGI [45]: > 100 µM
- TGI [46]: > 100 µM
- TGI [47]: > 100 µM
- TGI [49]: > 100 µM
- TGI [50]: > 100 µM
- TGI [51]: > 100 µM
- TGI [58]: > 100 µM
- TGI [52]: > 100 µM
- TGI [53]: > 100 µM
- TGI [54]: > 100 µM
- TGI [55]: > 100 µM
